{"source": "patent US8986961B2", "about": "“Fermentative production of acetone from renewable resources by means of novel metabolic pathway” (Evonik Degussa GmbH, priority 2007, dated 2015)", "key": {"[1]": {"biological_target": "YbgC acyl-CoA thioesterase (EC 3.1.2.18) (Haemophilus influenzae, UniProt P44679)", "sequence (P44679 whole entry)": "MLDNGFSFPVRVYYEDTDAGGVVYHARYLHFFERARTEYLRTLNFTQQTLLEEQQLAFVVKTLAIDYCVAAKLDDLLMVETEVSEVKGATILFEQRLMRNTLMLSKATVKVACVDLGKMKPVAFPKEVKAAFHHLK", "details": "Zhuang et al. 2002; read-out: Km of YbgC for substrate; cited from earlier work"}, "[2]": {"tested_on": "acyl-CoA synthetase/acyl-CoA thiokinase (with AMP formation; EC 6.2.1.2)", "details": "purified enzyme, Shimizu et al. 1981; read-out: Km for substrate; cited from earlier work"}, "[3]": {"biological_target": "T1, Acetoacetyl-CoA synthetase (AACS) (Rhizobium meliloti, UniProt Q9Z3R3)", "T1 sequence (Q9Z3R3 1-650)": "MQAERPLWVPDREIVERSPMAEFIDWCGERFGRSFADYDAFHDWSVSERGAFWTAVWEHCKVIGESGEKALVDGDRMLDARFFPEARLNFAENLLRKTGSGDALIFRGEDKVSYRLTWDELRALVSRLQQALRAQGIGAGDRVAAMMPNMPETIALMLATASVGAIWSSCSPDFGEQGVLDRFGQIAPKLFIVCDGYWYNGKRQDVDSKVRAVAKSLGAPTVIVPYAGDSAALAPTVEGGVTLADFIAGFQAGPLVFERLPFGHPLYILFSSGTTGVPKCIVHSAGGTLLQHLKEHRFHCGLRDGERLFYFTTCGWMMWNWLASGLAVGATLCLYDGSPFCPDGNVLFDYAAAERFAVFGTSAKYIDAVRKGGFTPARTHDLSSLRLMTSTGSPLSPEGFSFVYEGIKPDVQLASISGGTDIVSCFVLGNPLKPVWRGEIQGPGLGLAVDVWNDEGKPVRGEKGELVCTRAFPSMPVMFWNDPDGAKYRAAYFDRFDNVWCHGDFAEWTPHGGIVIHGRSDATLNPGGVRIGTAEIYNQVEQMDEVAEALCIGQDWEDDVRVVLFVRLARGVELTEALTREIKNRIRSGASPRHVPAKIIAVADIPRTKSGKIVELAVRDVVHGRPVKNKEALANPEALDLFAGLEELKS", "details": "purified AACS, DTNB assay", "source_text": "(§1) The resulting fractions were combined and employed for the activity determination. […] In the DTNB assay, the terminal sulfhydryl group of CoA, which has been liberated by the enzymatic conversion to acetoacetate or acetate, reacts with DTNB to give a coloured product which can be determined by photometry at 412 nm."}, "[4]": {"biological_target": "T2, Thioesterase II (TEIIsrf) (Bacillus subtilis, UniProt Q08788)", "T2 sequence (Q08788 with tags, fused parts or gaps)": "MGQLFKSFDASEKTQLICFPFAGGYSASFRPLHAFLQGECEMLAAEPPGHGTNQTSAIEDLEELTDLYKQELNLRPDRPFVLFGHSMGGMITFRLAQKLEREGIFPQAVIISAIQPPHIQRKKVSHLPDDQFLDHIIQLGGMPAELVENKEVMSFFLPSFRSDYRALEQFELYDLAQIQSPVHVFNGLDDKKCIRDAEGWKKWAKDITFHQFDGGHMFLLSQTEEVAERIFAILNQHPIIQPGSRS", "details": "read-out: Km of TEIIsrf for substrate; purified His-tagged TEIIsrf, DTNB assay 412 nm, Lineweaver-Burk", "procedure": "(§2) The intended activity measurement using the DTNB assay [5,5′-dithiobis(2-nitrobenzoic acid)], with which free SH groups are determined, required purification of the protein. This took place with the assistance of FPLC via the fused His tag of TEIIsrf by means of metal chelate affinity chromatography on Ni^2+-NTA agarose and increasing imidazole gradient.\n(§3) For this purpose, initially the cells were harvested (5000×g, 15 min, 4° C.), suspended in 3 ml/g fresh weight of cell disruption buffer (50 mM HEPES, 300 mM NaCl, pH 7.8) and stored if necessary at −20° C. The cells were disrupted by ultrasound treatment (Sonicator Bandelin Sonopuls, Bandelin Berlin), and the crude extract was obtained by centrifugation (30 000×g, 30 min, 4° C.). Purification took place on an FPLC system (Pharmacia Biotech GmbH). 3.5 ml of crude extract were loaded onto the Ni^2+-NTA agarose column (Qiagen Superflow, bed volume 5 ml) which had been prepared and equilibrated (50 mM HEPES, 300 mM NaCl, 30 mM imidazole, pH 7) in accordance with the manufacturer's instructions. […]\nas §1"}, "E. coli HB101": {"tested_on": "E. coli HB101", "test": "Acetone formation in E. coli HB101, 5 ml cultures", "format": "cell-based, Escherichia coli", "details": "HB101, LBAmp, 5 ml culture, 37° C., glucose 20 g/l, cell-free supernatant, gas chromatography", "method": "All the resulting plasmid variants (see Table 1) were investigated for acetone formation in the E. coli cloning strain HB101. The analyses took place on the 5 ml scale in LB medium with ampicillin (100 μg/ml) after inoculation from appropriate precultures and after incubation at 37° C. and 200 rpm. The optical density (600 nm) was followed by photometry and, at a value of about 0.5-0.6, expression of the cloned genes was induced by adding 1 mM IPTG (isopropyl β-D-thiogalactopyrano-side) and, after 3-4 h, glucose (20 g/l) was added. No induction took place with the variants under the control of the thiolase promoter because it was assumed that constitutive expression takes place. Samples were taken at particular times over a period of about 48 h, and the concentration of acetone and acetate in the cell-free medium supernatant was determined by gas chromatography. Additional glucose doses optionally took place in varying amounts (in the range 10-40 g/l) either 4 h after induction or else simultaneously with the induction."}, "[5]": {"tested_on": "CC(=O)CC(=O)SCCNC(=O)CCNC(=O)[C@H](O)C(C)(C)COP(=O)(O)OP(=O)(O)OC[C@H]1O[C@@H](n2cnc3c(N)ncnc32)[C@H](O)[C@@H]1OP(=O)(O)O", "test": "purified protein, by the assay type", "details": "other: YbgC elution fractions (IMPACT system), DTNB assay; measurements varied", "procedure": "as §1\nExpression took place in E. coli BL21 (DE3) in LBAmp medium until induction at an OD600nm of ˜0.5 with 0.5 mM IPTG at 37° C., and thereafter the culture was incubated at 20° C. and 150 rpm for a further 6 h. The heterologously expressed fusion protein (approx. 70 kDa) binds to chitin. Addition of DTT causes a conformational change and induces cutting out of the target protein (approx. 15 kDa), which can subsequently be eluted."}, "[6]": {"tested_on": "CC(=O)SCCNC(=O)CCNC(=O)[C@H](O)C(C)(C)COP(=O)(O)OP(=O)(O)OC[C@H]1O[C@@H](n2cnc3c(N)ncnc32)[C@H](O)[C@@H]1OP(=O)(O)O", "test": "purified protein, by the assay type", "details": "other: YbgC elution fractions (IMPACT system), DTNB assay; measurements varied"}, "[7]": {"substrate": "CC(=O)CC(=O)SCCNC(=O)CCNC(=O)[C@H](O)C(C)(C)COP(=O)(O)OP(=O)(O)OC[C@H]1O[C@@H](n2cnc3c(N)ncnc32)[C@H](O)[C@@H]1OP(=O)(O)O", "test": "purified protein, by the assay type", "details": "other: purified His-tagged TEIIsrf, DTNB assay 412 nm, Lineweaver-Burk", "procedure": "as §2, §3, §1"}, "[8]": {"substrate": "CC(=O)SCCNC(=O)CCNC(=O)[C@H](O)C(C)(C)COP(=O)(O)OP(=O)(O)OC[C@H]1O[C@@H](n2cnc3c(N)ncnc32)[C@H](O)[C@@H]1OP(=O)(O)O", "test": "purified protein, by the assay type", "details": "other: purified His-tagged AACS (peak 2), DTNB assay"}}, "note": "Several values for one entry are separate records, joined by “and”; a condition that tells them apart may be missing. Identical values can stand only once.", "data": [{"molecule": "β-hydroxybutyrate-CoA", "values": [{"measurement": "Km", "setting": "[1]", "result": 20000, "unit": "µM"}, {"measurement": "Km", "setting": "[2]", "result": 25, "unit": "µM"}]}, {"molecule": "CC(=O)CC(=O)SCCNC(=O)CCNC(=O)[C@H](O)C(C)(C)COP(=O)(O)OP(=O)(O)OC[C@H]1O[C@@H](n2cnc3c(N)ncnc32)[C@H](O)[C@@H]1OP(=O)(O)O", "note": "[acetoacetyl-CoA]", "values": [{"measurement": "specific activity of the enzyme with substrate", "setting": "[3]", "result": 0.0038, "unit": "µmol/min/mg"}]}, {"molecule": "CCC(=O)C(=O)O", "note": "[2-ketobutyrate]", "values": [{"measurement": "Km", "setting": "[2]", "result": 25, "unit": "µM"}]}, {"molecule": "CC(=O)SCCNC(=O)CCNC(=O)[C@H](O)C(C)(C)COP(=O)(O)OP(=O)(O)OC[C@H]1O[C@@H](n2cnc3c(N)ncnc32)[C@H](O)[C@@H]1OP(=O)(O)O", "note": "[acetyl-CoA]", "values": [{"measurement": "Km", "setting": "[4]", "result": 200, "unit": "µM"}]}, {"molecule": "pUC18att: plasmid SEQ ID No. 10; teIIsrf, adc, thlA in pUC18 under thl promoter", "values": [{"measurement": "Max. acetone concentration", "setting": "E. coli HB101", "result": "35 mM and 2.0 g/l"}]}, {"molecule": "CCCC(=O)SCCNC(=O)CCNC(=O)[C@H](O)C(C)(C)COP(=O)(O)OP(=O)(O)OC[C@H]1O[C@@H](n2cnc3c(N)ncnc32)[C@H](O)[C@@H]1OP(=O)(O)O", "note": "[butyryl-CoA]", "values": [{"measurement": "Km", "setting": "[1]", "result": 24000, "unit": "µM"}, {"measurement": "Km", "setting": "[2]", "result": 10, "unit": "µM"}]}, {"molecule": "Acyl-CoA thioesterase YbgC (Haemophilus influenzae Rd KW20)", "values": [{"measurement": "Km", "setting": "[5]", "result": 140, "unit": "µM"}, {"measurement": "Km", "setting": "[6]", "result": 530, "unit": "µM"}]}, {"molecule": "Thioesterase II (TEIIsrf) (Bacillus subtilis subsp. subtilis str. 168) (protein) MGQLFKSFDASEKTQLICFPFAGGYSASFRPLHAFLQGECEMLAAEPPGHGTNQTSAIEDLEELTDLYKQELNLRPDRPFVLFGHSMGGMITFRLAQKLEREGIFPQAVIISAIQPPHIQRKKVSHLPDDQFLDHIIQLGGMPAELVENKEVMSFFLPSFRSDYRALEQFELYDLAQIQSPVHVFNGLDDKKCIRDAEGWKKWAKDITFHQFDGGHMFLLSQTEEVAERIFAILNQHPIIQPGSRS", "values": [{"measurement": "Km", "setting": "[7]", "result": 770, "unit": "µM"}]}, {"molecule": "Acetoacetyl-CoA synthetase (AACS) (Sinorhizobium meliloti 1021) (protein) MQAERPLWVPDREIVERSPMAEFIDWCGERFGRSFADYDAFHDWSVSERGAFWTAVWEHCKVIGESGEKALVDGDRMLDARFFPEARLNFAENLLRKTGSGDALIFRGEDKVSYRLTWDELRALVSRLQQALRAQGIGAGDRVAAMMPNMPETIALMLATASVGAIWSSCSPDFGEQGVLDRFGQIAPKLFIVCDGYWYNGKRQDVDSKVRAVAKSLGAPTVIVPYAGDSAALAPTVEGGVTLADFIAGFQAGPLVFERLPFGHPLYILFSSGTTGVPKCIVHSAGGTLLQHLKEHRFHCGLRDGERLFYFTTCGWMMWNWLASGLAVGATLCLYDGSPFCPDGNVLFDYAAAERFAVFGTSAKYIDAVRKGGFTPARTHDLSSLRLMTSTGSPLSPEGFSFVYEGIKPDVQLASISGGTDIVSCFVLGNPLKPVWRGEIQGPGLGLAVDVWNDEGKPVRGEKGELVCTRAFPSMPVMFWNDPDGAKYRAAYFDRFDNVWCHGDFAEWTPHGGIVIHGRSDATLNPGGVRIGTAEIYNQVEQMDEVAEALCIGQDWEDDVRVVLFVRLARGVELTEALTREIKNRIRSGASPRHVPAKIIAVADIPRTKSGKIVELAVRDVVHGRPVKNKEALANPEALDLFAGLEELKS", "values": [{"measurement": "Km", "setting": "[8]", "result": 700, "unit": "µM"}]}]}
